Measured values reported in patent US7320981B2, “Variolin derivatives as anti-cancer agents” (Pharma Mar, S.A., priority 2000, dated 2008).
Where two headings read alike, the source gives them in different places.

Experiments:
A498 = experiment: SRB cell growth/viability assay, A498; details: for GI50 / CC50: Homo sapiens, A498, 48 h; for GI50: read-out: GI50 (50% growth inhibition); for CC50: read-out: LC50 (50% net cell killing, cytotoxic effect)
Text: (§1) A colorimetric type of assay, using sulforhodamine B (SRB) reaction has been adapted for a quantitative measurement of cell growth and viability: see Skehan, P. A. et al. J. Natl. Cancer Inst., 1990, 82, 1107-1112. This form of the assay employs 96 well cell culture microplates of 9 mm diameter (Faircloth, G. T.; Stewart, D. and Clement, J. J., Journal of Tissue and Culture Methods, 1983, 11, 201-205; Mosmann, T. Journal of Immunological Methods, 1983, 65, 55-63.).
(§2) Most of the cell lines are obtained from American Type Culture Collection (ATCC) derived from different human cancer types. Cells are maintained in RPMI 1640 10% FBS, supplemented with 0.1 g/l penicillin and 0.1 g/l streptomycin sulfate and then incubated at 37° C., 5% CO2 and 98% humidity. For the experiments, cells were harvested from subconfluent cultures using trypsin and resuspended in fresh medium before plating.
(§3) Cells are seeded in 96 well microtiter plates, at 5×10^3 cells per well in aliquots of 195 μl medium, and they are allowed to attach to the plate surface by growing in drug free medium for 18 hours. Afterward, samples are in aliquots of 5 pi in a ranging from 10 to 10-8 μg/ml dissolved in DMSO/EtOH (0.2% in PS buffer). After 48 hours exposure, the antitumour effect are measured by the SRB methodology: cells are fixed by adding 50 μl of cold 50% (w/v) trichloroacetic acid (TCA) and incubating for 60 minutes at 4° C. Plates are washed with deionized water and dried. 100 μl of SRB solution (0.4% w/v in 1% acetic acid) is added to each microtiter well and incubated for 10 minutes at room temperature. Unbound SRB is removed by washing with 1% acetic acid. Plates are air-dried and bound stain is solubilized with Tris buffer. Optical densities are read on an automated spectrophotometric plate reader at a single wavelength of 490 nm.
(§4) The values for mean +/− SD of data from triplicate wells are calculated Some parameters for cellular responses can be calculated: […], TGI=total growth inhibition (cytostatic effect) and LC=cell killing (cytotoxic effect).

HT-29 = experiment: SRB cell growth/viability assay, HT-29; details: for GI50 / CC50: Homo sapiens, HT-29, 48 h
Text: as §1, §2, §3, §4

MEL-28 = experiment: SRB cell growth/viability assay, MEL-28; details: for GI50 / CC50: Homo sapiens, SK-MEL-28, 48 h; for GI50: read-out: GI50 (50% growth inhibition); for CC50: read-out: LC50 (50% net cell killing, cytotoxic effect)
Text: as §1, §2, §3, §4

A-549 = experiment: SRB cell growth/viability assay, A-549; details: for GI50 / CC50: Homo sapiens, A549, 48 h
Text: as §1, §2, §3, §4

SW-620 = experiment: SRB cell growth/viability assay, SW-620; details: for GI50 / CC50: Homo sapiens, SW-620, 48 h; for GI50: read-out: GI50 (50% growth inhibition); for CC50: read-out: LC50 (50% net cell killing, cytotoxic effect)
Text: as §1, §2, §3, §4

DU-145 = experiment: SRB cell growth/viability assay, DU-145; details: for GI50 / CC50: Homo sapiens, DU-145, 48 h; for GI50: read-out: GI50 (50% growth inhibition); for CC50: read-out: LC50 (50% net cell killing, cytotoxic effect)
Text: as §1, §2, §3, §4

MCF-7 = experiment: SRB cell growth/viability assay, MCF-7; details: for GI50 / CC50: Homo sapiens, MCF7, 48 h; for GI50: read-out: GI50 (50% growth inhibition); for CC50: read-out: LC50 (50% net cell killing, cytotoxic effect)
Text: as §1, §2, §3, §4

MB-231 = experiment: SRB cell growth/viability assay, MB-231; details: for GI50 / CC50: Homo sapiens; for GI50: read-out: GI50 (50% growth inhibition); for CC50: read-out: LC50 (50% net cell killing, cytotoxic effect)
Text: as §1, §2, §3, §4

OVCAR-3 = experiment: cells; type: cell-based; details: for CC50 / GI50: Homo sapiens; for CC50: read-out: LC50 (50% net cell killing, cytotoxic effect); for GI50: read-out: GI50 (50% growth inhibition)
Text: Plates are washed with deionized water and dried.

[1] = read-out: GI50 (50% growth inhibition)
[2] = read-out: LC50 (50% net cell killing, cytotoxic effect)
[3] = Table 1, kidney cell line A498, 48 hours exposure, SRB
[4] = Table 1, colon cell line HT-29, 48 hours exposure, SRB
[5] = Table 1, melanoma cell line MEL-28, 48 hours exposure, SRB
[6] = Table 1, NSCL cell line A-549, 48 hours exposure, SRB
[7] = Table 1, colon cell line SW-620, 48 hours exposure, SRB
[8] = Table 1, prostate cell line DU-145, 48 hours exposure, SRB
[9] = Table 1, breast cell line MCF-7, 48 hours exposure, SRB
[10] = Table 1, ovary cell line OVCAR-3, 48 hours exposure, SRB
[11] = Table 1, breast cell line MB-231, 48 hours exposure, SRB

Row | SMILES | GI50 (A498) [µM] | CC50 (A498) [µM] | GI50 (HT-29; [1]) [µM] | CC50 (HT-29; [2]) [µM] | GI50 (MEL-28) [µM] | CC50 (MEL-28) [µM] | GI50 (A-549; [1]) [µM] | CC50 (A-549; [2]) [µM] | GI50 (SW-620) [µM] | CC50 (SW-620) [µM] | GI50 (DU-145) [µM] | CC50 (DU-145) [µM] | GI50 (MCF-7) [µM] | CC50 (MCF-7) [µM] | GI50 (MB-231; 48 h) [µM] | CC50 (MB-231; 48 h) [µM] | TGI (total growth inhibition, cytostatic effect) (A498; [3]) [M] | TGI (total growth inhibition, cytostatic effect) (HT-29; [4]) [M] | TGI (total growth inhibition, cytostatic effect) (MEL-28; [5]) [M] | TGI (total growth inhibition, cytostatic effect) (A-549; [6]) [M] | further results
1 | Nc1nccc(-c2c3c(O)ccnc3n3c(N)nccc23)n1 [Compound 1, Variolin B] | 0.1 | 2 | 0.7 | 3 | 0.7 | 2 | 0.7 | 3 | 0.1 | 2 | 0.1 | 1 | 0.7 | 2 | 0.3 | 3 | – | – | – | – | TGI (total growth inhibition, cytostatic effect) (A498; 48 h): 3.E−07 M; TGI (total growth inhibition, cytostatic effect) (HT-29; 48 h): 1.E−06 M; GI50 (HT-29; read-out: HT-29 GI50): 1 µM; CC50 (HT-29; read-out: HT-29 LC50): > 170 µM; HT-29 TGI (HT-29; Table 2, HT-29, 48 hours exposure, SRB): 1.7 10^−5 M; TGI (total growth inhibition, cytostatic effect) (MEL-28; 48 h): 1.E−06 M; TGI (total growth inhibition, cytostatic effect) (A-549; 48 h): 1.E−06 M; GI50 (A-549; read-out: A-549 GI50): 0.17 µM; CC50 (A-549; read-out: A-549 LC50): 170 µM; A-549 TGI (A-549; Table 2, A-549, 48 hours exposure, SRB): 6.8 10^−7 M; TGI (total growth inhibition, cytostatic effect) (SW-620; 48 h): 3.E−07 M; TGI (total growth inhibition, cytostatic effect) (DU-145; 48 h): 3.E−07 M; TGI (total growth inhibition, cytostatic effect) (MCF-7; 48 h): 2.E−06 M; TGI (total growth inhibition, cytostatic effect) (MB-231; 48 h): 1.E−06 M
2 | Nc1nccc(-c2c3cccnc3n3c(N)nccc23)n1 [Compound 4, deoxyvariolin B] | 0.07 | 0.7 | 0.07 | 10 | 0.07 | 0.3 | 0.1 | 0.4 | 0.07 | 10 | 0.1 | 7 | 0.1 | 4 | 0.07 | 30 | 2.E−07 | 2.E−07 | 1.E−07 | 2.E−07 | TGI (total growth inhibition, cytostatic effect) (SW-620; [7]): 3.E−07 M; TGI (total growth inhibition, cytostatic effect) (DU-145; [8]): 3.E−07 M; TGI (total growth inhibition, cytostatic effect) (MCF-7; [9]): 3.E−07 M; CC50 (OVCAR-3; OVCAR-3, 48 h): 0.4 µM; GI50 (OVCAR-3; [10]): 0.1 µM; TGI (total growth inhibition, cytostatic effect) (OVCAR-3; [10]): 3.E−07 M; TGI (total growth inhibition, cytostatic effect) (MB-231; [11]): 3.E−07 M
3 | CSc1nccc(-c2c3cccnc3n3c(N)nccc23)n1 [Compound 5, thiodeoxyvariolin] | 0.6 | 3 | 0.6 | 10 | 0.06 | 6 | 1 | 10 | 3 | 30 | 0.3 | 3 | 2 | 30 | 2 | 10 | 2.E−06 | 2.E−06 | 3.E−07 | 3.E−06 | TGI (total growth inhibition, cytostatic effect) (SW-620; [7]): 1.E−05 M; TGI (total growth inhibition, cytostatic effect) (DU-145; [8]): 1.E−06 M; TGI (total growth inhibition, cytostatic effect) (MCF-7; [9]): 6.E−06 M; GI50 (OVCAR-3; [10]): 1 µM; CC50 (OVCAR-3; [10]): 3 µM; TGI (total growth inhibition, cytostatic effect) (OVCAR-3; [10]): 2.E−06 M; TGI (total growth inhibition, cytostatic effect) (MB-231; [11]): 6.E−07 M
